ChEMBL document CHEMBL1201862, “PubChem BioAssay data set” (2004)
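Five compound concentrations were applied to cells in 96-well plates for 48 hours; endpoints were derived by simple linear interpolation of the resulting dose-response curve. GI50 is the concentration that inhibits growth by half.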 Active and inactive are the calls of the source. No stated cut-off is given here; in the data, active = GI50 up to about 1.1 µM and inactive = higher.

Experiments:
Assay in all cases: inhibition of tumour cell growth, NCI panel, 48 h
[1] = tested on: UACC-257
[2] = tested on: HT-29
[3] = tested on: NCI-H226
[4] = tested on: PC-3
[5] = tested on: HCC 2998
[6] = tested on: MDA-N
[7] = tested on: RXF 393
[8] = tested on: MDA-MB-435
[9] = tested on: CCRF-CEM
[10] = tested on: NCI-H23
[11] = tested on: Hs-578T
[12] = tested on: MOLT-4
[13] = tested on: NCI/ADR-RES
[14] = tested on: OVCAR-5
[15] = tested on: A549
[16] = tested on: MDA-MB-231
[17] = tested on: OVCAR-3
[18] = tested on: SK-MEL-2
[19] = tested on: K562
[20] = tested on: EKVX

Measured: GI50

O=C(O)c1cc2ccccc2oc1=O [COUMARIN-3-CARBOXYLIC ACID]
inactive: [1] > 100 µM | [2] > 100 µM | [3] > 100 µM | [4] > 100 µM | [5] > 100 µM | [6] > 100 µM | [7] > 100 µM | [8] > 100 µM | [9] > 100 µM | [10] > 100 µM | [11] > 100 µM | [12] > 100 µM | [13] > 100 µM | [14] > 100 µM | [15] > 100 µM | [16] > 100 µM | [17] > 100 µM | [18] > 100 µM | [19] > 100 µM | [20] > 100 µM

Cc1c(O)ccc2c(O)c(NC(=O)c3ccc4c(c3)CCC(C)(C)O4)c(=O)oc12 [CYCLONOVOBIOCIC ACID]
inactive: [1] > 100 µM | [2] > 100 µM | [3] > 100 µM | [4] > 100 µM | [5] > 100 µM | [6] > 100 µM | [7] > 100 µM | [8] > 100 µM | [9] > 100 µM | [10] > 100 µM | [11] > 100 µM | [12] > 100 µM | [13] > 100 µM | [14] > 100 µM | [15] > 100 µM | [16] > 100 µM | [17] > 100 µM | [18] > 100 µM | [19] > 100 µM | [20] > 100 µM
